Results reported in ChEMBL document CHEMBL3046218, “Characterization of sensitivity of Rhizoctonia solani, causing rice sheath blight, to mepronil and boscalid” (Crop Prot, 2009).
≈ marks a conversion by molar mass, not a printed value.

Columns and labels:
[1] = system: Rhizoctonia solani; assay: Antifungal activity against mepronil-resistant Rhizoctonia solani ZJR2 after 2 days; format: functional, organism-based; settings: ZJR2, 48 h
[2] = system: Rhizoctonia solani; assay: Antifungal activity against mepronil-resistant Rhizoctonia solani JSR2 after 2 days; format: functional, organism-based; settings: JSR2, 48 h
[3] = system: Rhizoctonia solani; assay: Antifungal activity against mepronil-resistant Rhizoctonia solani ZJR3 after 2 days; format: functional, organism-based; settings: ZJR3, 48 h
[4] = system: Rhizoctonia solani; assay: Antifungal activity against mepronil-resistant Rhizoctonia solani ZJR1 after 2 days; format: functional, organism-based; settings: ZJR1, 48 h
[5] = system: Rhizoctonia solani; assay: Antifungal activity against mepronil-resistant Rhizoctonia solani JSR1 after 2 days; format: functional, organism-based; settings: JSR1, 48 h
[6] = system: Rhizoctonia solani; assay: Antifungal activity against mepronil-sensitive wild type Rhizoctonia solani ZJ-1 after 2 days; format: functional, organism-based; settings: ZJ-1, 48 h
[7] = system: Rhizoctonia solani; assay: Antifungal activity against mepronil-resistant Rhizoctonia solani JSR3 after 2 days; format: functional, organism-based; settings: JSR3, 48 h
[8] = system: Rhizoctonia solani; assay: Antifungal activity against mepronil-sensitive wild type Rhizoctonia solani JS7 after 2 days; format: functional, organism-based; settings: JS7, 48 h
[9] = system: Rhizoctonia solani; assay: Resistant factor, ratio of EC50 for mepronil-resistant Rhizoctonia solani JSR1 to EC50 for mepronil-sensitive wild type Rhizoctonia solani JS7; format: functional
[10] = system: Rhizoctonia solani; assay: Resistant factor, ratio of EC50 for mepronil-resistant Rhizoctonia solani ZJR3 to EC50 for mepronil-sensitive wild type Rhizoctonia solani ZJ-1; format: functional
[11] = system: Rhizoctonia solani; assay: Resistant factor, ratio of EC50 for mepronil-resistant Rhizoctonia solani JSR2 to EC50 for mepronil-sensitive wild type Rhizoctonia solani JS7; format: functional
[12] = system: Rhizoctonia solani; assay: Resistant factor, ratio of EC50 for mepronil-resistant Rhizoctonia solani ZJR1 to EC50 for mepronil-sensitive wild type Rhizoctonia solani ZJ-1; format: functional
[13] = system: Rhizoctonia solani; assay: Resistant factor, ratio of EC50 for mepronil-resistant Rhizoctonia solani JSR3 to EC50 for mepronil-sensitive wild type Rhizoctonia solani JS7; format: functional
[14] = system: Rhizoctonia solani; assay: Resistant factor, ratio of EC50 for mepronil-resistant Rhizoctonia solani ZJR2 to EC50 for mepronil-sensitive wild type Rhizoctonia solani ZJ-1; format: functional

Row | Compound | EC50 [1] [µg/mL] | EC50 [2] [µg/mL] | EC50 [3] [µg/mL] | EC50 [4] [µg/mL] | EC50 [5] [µg/mL] | EC50 [6] [µg/mL] | EC50 [7] [µg/mL] | EC50 [8] [µg/mL] | Ratio EC50 [9] | Ratio EC50 [10] | Ratio EC50 [11] | Ratio EC50 [12] | Ratio EC50 [13] | Ratio EC50 [14]
1 | CO/C=C(/C(=O)OC)c1ccccc1Oc1cc(Oc2ccccc2C#N)ncn1 [AZOXYSTROBIN] | 0.34 (≈ 0.843 µM) | 0.18 (≈ 0.446 µM) | 0.32 (≈ 0.793 µM) | 0.32 (≈ 0.793 µM) | 0.17 (≈ 0.421 µM) | 0.32 (≈ 0.793 µM) | 0.19 (≈ 0.471 µM) | 0.19 (≈ 0.471 µM) | – | – | – | – | – | –
2 | O=C(Nc1ccccc1-c1ccc(Cl)cc1)c1cccnc1Cl [BOSCALID] | 2.15 (≈ 6.26 µM) | 2.13 (≈ 6.21 µM) | 1.93 (≈ 5.62 µM) | 1.87 (≈ 5.45 µM) | 2.26 (≈ 6.58 µM) | 1.98 (≈ 5.77 µM) | 2.08 (≈ 6.06 µM) | 2.15 (≈ 6.26 µM) | – | – | – | – | – | –
3 | CO/N=C(/C(=O)OC)c1ccccc1COc1ccccc1C [KRESOXIM-METHYL] | 0.29 (≈ 0.925 µM) | 0.14 (≈ 0.447 µM) | 0.37 (≈ 1.18 µM) | 0.33 (≈ 1.05 µM) | 0.2 (≈ 0.638 µM) | 0.34 (≈ 1.09 µM) | 0.16 (≈ 0.511 µM) | 0.16 (≈ 0.511 µM) | – | – | – | – | – | –
4 | Cc1ccccc1C(=O)Nc1cccc(OC(C)C)c1 [MEPRONIL] | 12.7 (≈ 47 µM) | 14.2 (≈ 52.6 µM) | 20.8 (≈ 77.3 µM) | 13.5 (≈ 50.3 µM) | 8.56 (≈ 31.8 µM) | – | 20.6 (≈ 76.3 µM) | 0.098 (≈ 0.364 µM) | 87.3 | 179.5 | 144.5 | 116.7 | 209.8 | 109.2
5 | OCC1=C[C@H](N[C@H]2C[C@H](CO)[C@@H](O[C@@H]3O[C@H](CO)[C@@H](O)[C@H](O)[C@H]3O)[C@H](O)[C@H]2O)[C@H](O)[C@@H](O)[C@@H]1O [VALIDAMYCIN] | 0.09 (≈ 0.181 µM) | 0.18 (≈ 0.362 µM) | 0.1 (≈ 0.201 µM) | 0.08 (≈ 0.161 µM) | 0.16 (≈ 0.322 µM) | 0.09 (≈ 0.181 µM) | 0.14 (≈ 0.281 µM) | 0.18 (≈ 0.362 µM) | – | – | – | – | – | –
